{"source": "patent US20240316051A1", "about": "“A PHARMACEUTICAL COMBINATION AND USE THEREOF” (Ascentage Pharma (Suzhou) Co., Ltd., priority 2021, published 2024)", "assay_type_in_all_cases": "in vivo, mice", "key": {"[1]": {"system": "H226 (BAP1mut, UHRF1high, TP53WT, CDKN2Adel, FGFRhigh) subcutaneous mesothelioma xenograft", "test": "H226 subcutaneous mesothelioma xenograft model (Example 22)", "conditions": "for RTV @ D 39: mean ± SEM", "procedure": "(§1) A subcutaneous xenograft tumor model of human tumor immunodeficient mice was established by cell inoculation: tumor cells in logarithmic growth phase were collected, counted, resuspended in 1×PBS, and the cell suspension concentration was adjusted to 2.5-5×10^7/mL. The tumor cells were inoculated subcutaneously in the right side of immunodeficient mice with a 1 ml syringe ([…]), 5-10×10^6/0.2 mL/mouse. All animal experiments were strictly in accordance with the specifications for the use and management of experimental animals in GenePharma Co., Ltd. and Suzhou Ascentage Pharma Co., Ltd. The calculation of relevant parameters refers to the Chinese NMPA “Guidelines for Non-Clinical Research Techniques of Cytotoxic Anti-tumor Drugs”.\n(§2) Animal body weight and tumor size were measured twice weekly during the experiment. The state of the animal and the presence or absence of death were observed every day. The growth of tumor and the effects of treatment on normal behavior of animals were monitored routinely, specifically involving experimental animal activity, feeding and drinking, weight gain or loss, eyes, clothing hair and other abnormalities. The deaths and clinical symptoms observed during the experiment were recorded in the raw data. All operations for administration and measurement of mouse body weight and tumor volume were performed in a clean bench. According to the requirements of the experimental protocol, after the end of the last administration, plasma and tumor tissues were collected, weighed and photographed. The plasma and tumor samples were frozen at −80° C. for ready-to-use.\n(§3) Tumor volume (TV) is calculated as: TV=a×b^2/2, wherein a and b represent the length and width of the tumor to be measured, respectively.\n(§4) The relative tumor volume (RTV) is calculated as: RTV=Vt/V1, wherein V1 is the tumor volume at the start of grouping and administration, and Vt is the tumor volume measured on the t day after administration.\n(§5) The evaluation index of anti-tumor activity is the relative tumor proliferation rate T/C (%), and the calculation formula thereof is: relative tumor proliferation rate T/C (%)=(TRTV/CRTV)×100%, TRTV is the RTV of treatment group, CRTV is the RTV of solvent control group.\nChange of body weight (%)=(measured body weight-body weight at the start of grouping)/body weight at the start of grouping×100%.\n(§6) A dose of drug is considered to be severely toxic if the body weight of mouse is reduced by more than 20% or the number of drug-related deaths exceeds 20%.\nIn this experiment, H226 (BAP1mut, UHRF1high, TP53WT, CDKN2Adel, FGFRhigh) subcutaneous mesothelioma xenograft model was established to evaluate the anti-tumor effect of Compound 73 in combination with Compound C. The dosing regimen was as follows: • Compound C: 50 mg/kg, orally, every other day, for a total of 39 days; • Compound 73: 50 mg/kg, orally, once per day, for a total of 39 days; • Compound 73: 100 mg/kg, orally, once per day, for a total of 39 days."}, "LnCap prostate xenograft": {"system": "LnCap prostate xenograft", "test": "Subcutaneous LnCap prostate xenograft model (Example 25)", "conditions": "day 17", "procedure": "as §1, §2, §3, §4, §5, §6\n(§7) According to the description by Clarke R., Issues in experimental design and endpoint analysis in the study of experimental cytotoxic agents in vivo in breast cancer and other models [J]. Breast Cancer Research & Treatment, 1997, 46(2-3): 255-278, synergy analysis was evaluated using the following formula: synergy factor=((A/C)×(B/C))/(AB/C); A=RTV value of drug A alone group; B=RTV value of drug B alone group; C=RTV value of the solvent control group, and AB=RTV value of the A and B combination group.\nIn this experiment, subcutaneous LnCap prostate xenograft model was established to evaluate the anti-tumor effect of Compound 73 in combination with Compound C. The dosing regimen was as follows: • Compound C: 100 mg/kg, orally, every other day, for day 1-day 9; 50 mg/kg, orally, every other day, for day 10-day 28; • Compound 73: 100 mg/kg, orally, once per day, for a total of 28 days;\nThe dosing regimen of each drug in the dosing regimen for the combination is the same as the dosing regimen for the single drug, for a total of 28 days."}, "[2]": {"system": "NCI-H226 (BAP1mut, CDKN2Adel, FGFR high) xenograft", "test": "NCI-H226 xenograft model (Examples 18-19)", "conditions": "Compound 73 50 mg/kg, orally, once per day, 35 days", "procedure": "as §1\nas §2, with “All operations for administration and measurement of mouse body weight and tumor volume were performed in a clean bench. According to the requirements of the experimental protocol, after the end of the last administration, plasma and tumor tissues were collected, weighed and photographed.” left out\nas §3\n(§8) The relative tumor volume (RTV) is calculated as: RTV=Vt/V1, wherein V1 is the tumor volume at the start of grouping and administration, and Vt is the tumor volume measured on the t day after administration. […]\nUse of mRECIST (Gao et al., 2015) measured tumor responses included stable disease (SD), partial tumor regression (PR), and complete regression (CR), determined by comparing tumor volume change at day t to its baseline: tumor volume change (%)=(Vt−V1)/V1. […] For each time t, the average of tumor volume changes from t=1 to t was also calculated. […] Body weight of animals were monitored simultaneously. […]"}, "[3]": {"system": "malignant pleural mesothelioma (MPM) PDX model (FGFR1high; BAP1mut)", "test": "Subcutaneous malignant pleural mesothelioma (MPM) PDX model (Example 20)", "conditions": "Compound 73 100 mg/kg, Compound C 50 mg/kg, each orally every other day, 76 days; alone or combined", "procedure": "as §1, §2, §3, §8\nChange of body weight (%)=(measured body weight-body weight at the start of grouping)/body weight at the start of grouping×100%. […]\nas §7, with “group. […]” for “group.”"}, "[4]": {"conditions": "Compound 73 100 mg/kg orally once per day, alone or combined with Compound C 50 mg/kg every other day"}, "[5]": {"conditions": "Compound C 50 mg/kg orally every other day, Compound 73 50 mg/kg orally once per day, alone or combined"}}, "data": [{"molecule": "CC(C)N1Cc2cc(C(F)(F)F)ncc2-c2cnc(NCc3c(F)ccc4c3CCO4)n3cnc(c23)C1=O", "note": "[Compound 73, 12-(((5-fluoro-2,3-dihydrobenzofuran-4-yl)methyl)amino)-4-isopropyl-7-(trifluoromethyl)-4,5-dihydro-3H-2,4,8,11,12a-pentaazabenzo[4,5]cycloocta[1,2,3-cd]inden-3-one]", "values": [{"measurement": "T/C (%) @ D 39", "setting": "[1]; [4]", "value": 59.73, "unit": "%"}, {"measurement": "RTV @ D 39", "setting": "[1]; [4]", "value": "4.76 ± 0.61"}, {"measurement": "T/C (%) @ D 39", "setting": "[1]; [5]", "value": 67.7, "unit": "%"}, {"measurement": "RTV @ D 39", "setting": "[1]; [5]", "value": "5.39 ± 0.56"}, {"measurement": "antitumor activity (in words)", "setting": "[1]; single agents, 39 days (FIG. 10)", "value": "moderate antitumor activity"}, {"measurement": "RTV@ D 17", "setting": "LnCap prostate xenograft; LnCap xenograft, Compound 73 100 mg/kg orally once per day, Compound C 100 mg/kg/50 mg/kg orally every other day", "value": "4.09 ± 0.75"}, {"measurement": "T/C(%) @ D 17", "setting": "LnCap prostate xenograft; LnCap xenograft, Compound 73 100 mg/kg, Compound C 100 mg/kg/50 mg/kg", "value": 91.30, "unit": "%"}, {"measurement": "T/C value", "setting": "LnCap prostate xenograft; Compound C 100 mg/kg every other day day 1-9 then 50 mg/kg day 10-28, Compound 73 100 mg/kg once per day, orally, alone or combined", "value": 91.30, "unit": "%"}, {"measurement": "T/C (%)", "setting": "[2]", "value": 48.6, "unit": "%"}, {"measurement": "tumor response (mRECIST)", "setting": "[2]", "value": "all the mice achieving stable disease (SD)"}, {"measurement": "RTV @ D 76", "setting": "[3]", "value": 3.06}, {"measurement": "T/C (%) @ D 76", "setting": "[3]", "value": 53, "unit": "%"}]}]}
